From PubChem BioAssay AID248 (DTP/NCI, 2004)
“And” between values parts separate entries of the source, which are not always exact repeats. Identical values can stand only once. Toxic doses and inconclusive results are not listed. Numbered stars: 1 amine (or outer) side, 2 acyl side, 3 side chain; on linkers, the order of the positions; unused ones are H or OH. Bridge positions count the residues as written; N and C are the ends. Square brackets hold non-standard residues; d marks the D form. Peptide text beside a SMILES is read from it. I, II: the chains in the order shown. Actinocin(1to9) = Cc1c2oc3c(C)ccc(C(=O)[*:2])c3nc-2c(C(=O)[*:1])c(N)c1=O; NMeV = CN[CH](C(=O)O)C(C)C; Sar = CNCC(=O)O

System: L1210 leukemia ip in BDF1 mice, survival T/C
Test: NCI In Vivo Anticancer Drug Screen. Data for tumor model L1210 Leukemia (intraperitoneal) in B6D2F1 (BDF1) mice
Details: higher = longer survival
How it was run: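 Value reflects the ratio of survival in compound-treated mice to survival in vehicle-treated controls, with both groups carrying the same transplanted tumor.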

[1] = endpoint: mean survival time, dose: 100.0 mg/kg/injection, schedule: Q04DX003 (ip), vehicle: saline with Tween-80
[2] = endpoint: mean survival time, dose: 200.0 mg/kg/injection, schedule: Q04DX003 (ip), vehicle: saline with Tween-80
[3] = endpoint: mean survival time, dose: 100.0 mg/kg/injection, schedule: Q04DX002 (ip), vehicle: Klucel (hydroxypropylcellulose) (HPC)
[4] = endpoint: mean survival time, dose: 200.0 mg/kg/injection, schedule: Q04DX002 (ip), vehicle: Klucel (hydroxypropylcellulose) (HPC)
[5] = endpoint: mean survival time, dose: 400.0 mg/kg/injection, schedule: Q04DX002 (ip), vehicle: Klucel (hydroxypropylcellulose) (HPC)
[6] = endpoint: mean survival time, dose: 100.0 mg/kg/injection, schedule: Q01DX009 (ip), vehicle: saline
[7] = endpoint: mean survival time, dose: 200.0 mg/kg/injection, schedule: Q01DX009 (ip), vehicle: saline
[8] = endpoint: mean survival time, dose: 400.0 mg/kg/injection, schedule: Q01DX009 (ip), vehicle: saline
[9] = endpoint: mean survival time, dose: 100.0 mg/kg/injection, schedule: Q01DX001 (ip), vehicle: saline

For `Cc1nc2c(c(=O)[nH]1)OCN(Cc1ccccc1)C2`, the T/C (endpoint: mean survival time, dose: 50.0 mg/kg/injection, schedule: Q01DX001 (ip), vehicle: carboxymethylcellulose (CMC)) was 96 % of control, the T/C (endpoint: mean survival time, dose: 100.0 mg/kg/injection, schedule: Q01DX001 (ip), vehicle: carboxymethylcellulose (CMC)) was 98 % of control and the T/C (endpoint: mean survival time, dose: 200.0 mg/kg/injection, schedule: Q01DX001 (ip), vehicle: carboxymethylcellulose (CMC)) was 98 % of control. The T/C (endpoint: mean survival time, dose: 400.0 mg/kg/injection, schedule: Q01DX001 (ip), vehicle: carboxymethylcellulose (CMC)) was 98 % of control.

In the case of `Cn1nc(NC(=O)C(F)(F)F)c2nccnc21`, the T/C (endpoint: mean survival time, dose: 100.0 mg/kg/injection, schedule: Q01DX009 (ip), vehicle: saline with Tween-80) is reported as 95 % of control, the T/C [1] is reported as 100 % of control and the T/C (endpoint: mean survival time, dose: 200.0 mg/kg/injection, schedule: Q01DX009 (ip), vehicle: saline with Tween-80) is reported as 94 % of control. The T/C [2] was 101 % of control and the T/C (endpoint: mean survival time, dose: 400.0 mg/kg/injection, schedule: Q04DX003 (ip), vehicle: saline with Tween-80) was 108 % of control.

For `COC(=O)CCC(=O)NCC(=O)OCc1ccccc1`, the T/C (endpoint: mean survival time, dose: 100.0 mg/kg/injection, schedule: Q01DX001 (ip), vehicle: water) was 105 % of control, the T/C (endpoint: mean survival time, dose: 100.0 mg/kg/injection, schedule: Q04DX003 (ip), vehicle: water) was 100 % of control and the T/C (endpoint: mean survival time, dose: 200.0 mg/kg/injection, schedule: Q01DX001 (ip), vehicle: water) was 107 % of control. The T/C (endpoint: mean survival time, dose: 200.0 mg/kg/injection, schedule: Q04DX003 (ip), vehicle: water) was 96 % of control, the T/C (endpoint: mean survival time, dose: 400.0 mg/kg/injection, schedule: Q01DX001 (ip), vehicle: water) was 105 % of control and the T/C (endpoint: mean survival time, dose: 400.0 mg/kg/injection, schedule: Q04DX003 (ip), vehicle: water) was 90 % of control.

For `NC(CCl)=NCCC1=NCCN1`, the T/C (endpoint: mean survival time, dose: 100.0 mg/kg/injection, schedule: Q04DX002 (ip), vehicle: saline) was 100 % of control and the T/C (endpoint: mean survival time, dose: 200.0 mg/kg/injection, schedule: Q04DX002 (ip), vehicle: saline) was 106 % of control.

With `CC(Cc1cc(C)nc(NC#N)n1)=Nc1ccccc1` the T/C [3] was 100 % of control, the T/C [4] was 92 % of control and the T/C [5] was 100 % of control.

`CCC(C)C1NC(=O)C(NC(=O)c2c3nc4c(C(=O)NC5C(=O)NC(C(C)C)C(=O)N6CCCC6C(=O)N(C)CC(=O)N(C)C(C(C)C)C(=O)OC5C)ccc(C)c4oc-3c(C)c(=O)c2N)C(C)OC(=O)C(C(C)C)N(C)C(=O)CN(C)C(=O)C2CCCN2C1=O` (stereo unspecified) (I: TIP[Sar][NMeV] / II: TVP[Sar][NMeV]; ester I:1-I:C, II:1-II:C; linker I:N-II:N via Actinocin(1to9); configuration not given here) was tested, and the T/C (endpoint: mean survival time, dose: 0.2 mg/kg/injection, schedule: Q01DX009 (ip), vehicle: saline) was 92 % of control, the T/C (endpoint: mean survival time, dose: 3.1 micrograms/kg/injection, schedule: Q01DX001 (ip), vehicle: saline) was 97 % of control and the T/C (endpoint: mean survival time, dose: 5.5 micrograms/kg/injection, schedule: Q01DX009 (ip), vehicle: acetone) was 112 % of control. For the same molecule, the T/C (endpoint: mean survival time, dose: 6.3 micrograms/kg/injection, schedule: Q01DX001 (ip), vehicle: saline) was 98 % of control, the T/C (endpoint: mean survival time, dose: 8.2 micrograms/kg/injection, schedule: Q01DX009 (ip), vehicle: acetone) was 123 % of control and the T/C (endpoint: mean survival time, dose: 12.5 micrograms/kg/injection, schedule: Q01DX001 (ip), vehicle: saline) was 100 % of control. For the same molecule, the T/C (endpoint: mean survival time, dose: 25.0 micrograms/kg/injection, schedule: Q01DX001 (ip), vehicle: saline) was 107 % of control, the T/C (endpoint: mean survival time, dose: 25.0 micrograms/kg/injection, schedule: Q01DX009 (ip), vehicle: saline) was 159 % of control and the T/C (endpoint: mean survival time, dose: 50.0 micrograms/kg/injection, schedule: Q01DX001 (ip), vehicle: saline) was 114 % of control. The T/C (endpoint: mean survival time, dose: 100.0 micrograms/kg/injection, schedule: Q01DX001 (ip), vehicle: saline) was 111 % of control, the T/C (endpoint: mean survival time, dose: 200.0 micrograms/kg/injection, schedule: Q01DX001 (ip), vehicle: saline) was 117 % of control and the T/C (endpoint: mean survival time, dose: 400.0 micrograms/kg/injection, schedule: Q01DX001 (ip), vehicle: saline) was 116 % of control. For the same molecule, the T/C (endpoint: median survival time, dose: 12.5 micrograms/kg/injection, schedule: Q01DX009 (ip), vehicle: water) was 121 % of control, the T/C (endpoint: median survival time, dose: 25.0 micrograms/kg/injection, schedule: Q01DX009 (ip), vehicle: water) was 115 % of control and the T/C (endpoint: median survival time, dose: 100.0 micrograms/kg/injection, schedule: Q01DX009 (ip), vehicle: water) was 157 % of control. The T/C (endpoint: median survival time, dose: 200.0 micrograms/kg/injection, schedule: Q01DX001 (ip), vehicle: water) was 115 % of control, the T/C (endpoint: median survival time, dose: 400.0 micrograms/kg/injection, schedule: Q01DX001 (ip), vehicle: water) was 123 % of control and the T/C (endpoint: median survival time, dose: 600.0 micrograms/kg/injection, schedule: Q04DX003 (ip), vehicle: water) was 150 % of control.

In the case of `COc1cc(-c2cc(=O)c3c(O)cc(O)c(C4OC(CO)C(O)C(O)C4O)c3o2)ccc1O` (stereo unspecified), the T/C [6] is reported as 108 % of control, the T/C [7] is reported as 108 % of control and the T/C [8] is reported as 103 % of control.

With `Cc1ccc(S(=O)(=O)OC2C(SCc3ccccc3)OCC(OC(=O)c3ccccc3)C2OC(=O)c2ccccc2)cc1` (stereo unspecified) the T/C [9] was 93 % of control, the T/C (endpoint: mean survival time, dose: 200.0 mg/kg/injection, schedule: Q01DX001 (ip), vehicle: saline) was 88 % of control and the T/C (endpoint: mean survival time, dose: 400.0 mg/kg/injection, schedule: Q01DX001 (ip), vehicle: saline) was 88 % of control.

`CC(=O)OCc1ccc[n+](CCc2c[nH]c3ccccc23)c1` was tested, and the T/C [1] was 95 % of control and the T/C [2] was 90 % of control.

With `O=C1C=C(c2ccccc2)OC(c2ccccc2)C1` (stereo unspecified) the T/C (endpoint: mean survival time, dose: 75.0 mg/kg/injection, schedule: Q01DX009 (ip), vehicle: Klucel (hydroxypropylcellulose) (HPC)) was 97 % of control, the T/C (endpoint: mean survival time, dose: 150.0 mg/kg/injection, schedule: Q01DX009 (ip), vehicle: Klucel (hydroxypropylcellulose) (HPC)) was 99 % of control and the T/C (endpoint: mean survival time, dose: 300.0 mg/kg/injection, schedule: Q01DX009 (ip), vehicle: Klucel (hydroxypropylcellulose) (HPC)) was 99 % of control.

In the case of `COCCOc1nccc(N)n1`, the T/C (endpoint: mean survival time, dose: 25.0 mg/kg/injection, schedule: Q01DX001 (ip), vehicle: saline) is reported as 97 % of control, the T/C (endpoint: mean survival time, dose: 50.0 mg/kg/injection, schedule: Q01DX001 (ip), vehicle: saline) is reported as 97 % of control and the T/C [9] is reported as 100 % of control.

`C=CCN1CCCC1=O` was tested, and the T/C (endpoint: mean survival time, dose: 100.0 mg/kg/injection, schedule: Q04DX003 (ip), vehicle: saline) was 95 % of control, the T/C (endpoint: mean survival time, dose: 200.0 mg/kg/injection, schedule: Q04DX003 (ip), vehicle: saline) was 96 % of control and the T/C (endpoint: mean survival time, dose: 400.0 mg/kg/injection, schedule: Q04DX003 (ip), vehicle: saline) was 95 % of control.

`C/C(CCC1=CC=CC1=O)=N\NC(N)=O` was tested, and the T/C (endpoint: mean survival time, dose: 100.0 mg/kg/injection, schedule: Q01DX001 (ip), vehicle: other) was 98 % of control.

`COc1ccc2c(c1)N(C(=O)C(Cl)(Cl)Cl)Cc1ccccc1C2=O` was tested, and the T/C [6] was 87 % of control, the T/C [7] was 93 % of control and the T/C [8] was 96 % of control.

`O=C1OC(c2ccc([N+](=O)[O-])cc2)=N/C1=C\c1ccc(Cl)c(Cl)c1` was tested, and the T/C [3] was 108 % of control, the T/C [4] was 97 % of control and the T/C [5] was 101 % of control.

`Cn1cnc([N+](=O)[O-])c1[Se]c1nc(N)nc2c1ncn2C1CC(O)C(CO)O1` (stereo unspecified) was tested, and the T/C (endpoint: mean survival time, dose: 16.5 mg/kg/injection, schedule: Q01DX005 (ip), vehicle: saline) was 159 % of control, the T/C (endpoint: mean survival time, dose: 25.0 mg/kg/injection, schedule: Q01DX005 (ip), vehicle: saline) was 202 % of control and the T/C (endpoint: mean survival time, dose: 25.0 mg/kg/injection, schedule: Q01DX009 (ip), vehicle: saline) was 150 % of control. For the same molecule, the T/C (endpoint: mean survival time, dose: 37.5 mg/kg/injection, schedule: Q01DX005 (ip), vehicle: saline) was 219 % of control, the T/C (endpoint: mean survival time, dose: 37.5 mg/kg/injection, schedule: Q01DX009 (ip), vehicle: saline) was 158 % of control and the T/C (endpoint: mean survival time, dose: 50.0 mg/kg/injection, schedule: Q01DX005 (ip), vehicle: saline) was 98 % of control. The T/C (endpoint: mean survival time, dose: 62.5 mg/kg/injection, schedule: Q01DX005 (ip), vehicle: saline) was 117 % of control and the T/C (endpoint: mean survival time, dose: 62.5 mg/kg/injection, schedule: Q01DX009 (ip), vehicle: saline) was 105 % of control.

`O=C(Nc1ccccc1F)OCc1ccco1` was tested, and the T/C (endpoint: mean survival time, dose: 100.0 mg/kg/injection, schedule: Q01DX001 (ip), vehicle: Klucel (hydroxypropylcellulose) (HPC)) was 99 % of control, the T/C (endpoint: mean survival time, dose: 100.0 mg/kg/injection, schedule: Q01DX009 (ip), vehicle: Klucel (hydroxypropylcellulose) (HPC)) was 95 % of control and 102 % of control and the T/C [3] was 102 % of control and 106 % of control. For the same molecule, the T/C (endpoint: mean survival time, dose: 200.0 mg/kg/injection, schedule: Q01DX001 (ip), vehicle: Klucel (hydroxypropylcellulose) (HPC)) was 99 % of control, the T/C (endpoint: mean survival time, dose: 200.0 mg/kg/injection, schedule: Q01DX009 (ip), vehicle: Klucel (hydroxypropylcellulose) (HPC)) was 95 % of control and 91 % of control and the T/C [4] was 106 % of control and 118 % of control. The T/C (endpoint: mean survival time, dose: 400.0 mg/kg/injection, schedule: Q01DX001 (ip), vehicle: Klucel (hydroxypropylcellulose) (HPC)) was 94 % of control, the T/C (endpoint: mean survival time, dose: 400.0 mg/kg/injection, schedule: Q01DX009 (ip), vehicle: Klucel (hydroxypropylcellulose) (HPC)) was 98 % of control and 102 % of control and the T/C [5] was 96 % of control and 104 % of control.

In the case of `c1cc[c]([Sn]([c]2ccccc2)([c]2ccccc2)[n]2ccnc2)cc1`, the T/C (endpoint: mean survival time, dose: 5.0 mg/kg/injection, schedule: Q01DX001 (ip), vehicle: other) is reported as 95 % of control and the T/C (endpoint: mean survival time, dose: 10.0 mg/kg/injection, schedule: Q01DX001 (ip), vehicle: other) is reported as 108 % of control.
